Data set [1] has as its target T1, human salivary amylase (HSA) (Homo sapiens, UniProt P0DUB6).
T1 sequence (P0DUB6 16-511): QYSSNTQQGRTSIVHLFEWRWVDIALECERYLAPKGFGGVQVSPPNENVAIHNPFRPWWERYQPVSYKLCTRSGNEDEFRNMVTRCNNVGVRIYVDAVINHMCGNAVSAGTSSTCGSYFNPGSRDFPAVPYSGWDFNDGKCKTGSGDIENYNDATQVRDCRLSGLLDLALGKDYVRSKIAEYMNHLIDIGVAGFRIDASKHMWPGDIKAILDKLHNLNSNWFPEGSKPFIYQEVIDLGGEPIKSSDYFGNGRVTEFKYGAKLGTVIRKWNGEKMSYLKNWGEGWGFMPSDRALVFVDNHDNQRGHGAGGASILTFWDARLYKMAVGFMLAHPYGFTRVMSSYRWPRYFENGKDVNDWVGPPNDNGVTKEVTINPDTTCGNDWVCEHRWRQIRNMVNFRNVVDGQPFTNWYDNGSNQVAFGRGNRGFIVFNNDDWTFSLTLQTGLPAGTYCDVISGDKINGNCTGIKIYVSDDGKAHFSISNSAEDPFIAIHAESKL
Kind of data set: colorimetric amylase assay, […] nm. The class given is biochemical. The note with it: 30 °C.

For data set [2], the target named is T2, porcine pancreatic amylase (PPA) (Sus scrofa, UniProt P00690).
T2 sequence (P00690 16-511): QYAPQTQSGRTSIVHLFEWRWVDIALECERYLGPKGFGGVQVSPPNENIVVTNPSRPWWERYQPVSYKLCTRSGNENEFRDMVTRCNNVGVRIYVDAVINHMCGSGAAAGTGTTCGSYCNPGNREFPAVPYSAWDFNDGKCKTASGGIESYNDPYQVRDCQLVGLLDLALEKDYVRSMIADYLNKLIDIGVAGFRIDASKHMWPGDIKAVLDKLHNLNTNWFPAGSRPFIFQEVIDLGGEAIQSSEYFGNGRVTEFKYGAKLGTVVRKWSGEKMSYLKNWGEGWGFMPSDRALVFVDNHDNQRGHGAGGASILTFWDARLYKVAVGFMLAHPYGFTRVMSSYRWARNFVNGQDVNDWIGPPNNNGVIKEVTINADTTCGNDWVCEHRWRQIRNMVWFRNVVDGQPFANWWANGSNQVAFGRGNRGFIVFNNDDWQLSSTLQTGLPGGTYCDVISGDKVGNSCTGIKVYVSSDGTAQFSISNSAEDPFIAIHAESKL
Kind of data set: colorimetric amylase assay, […] nm. The conditions noted are these: 30 °C. It counts as biochemical.

The target in data set [3] is T3, AcbK (Actinoplanes sp. SE50/110, UniProt Q8RMD4). In words: X-ray crystallography, […] Å. It counts as binding. The conditions noted are these: ATP site; MnCl2, acarbose present.
Data set [4] addresses T3, AcbK. The note with it: 2 mM ATP as phosphate donor, MgCl2, pH 8, 37 °C.
The data set “crystal structure” deals with the molecule itself. Kind of data set: crystal structure.

Experimental findings from publication PMC10258454 (Nature, 2021) are described below.

With `CC1OC[C@H]2O[C@H](O[C@H]3[C@H](O)[C@@H](O)[C@@H](O[C@H]4[C@H](O)[C@@H](O)[C@@H](O[C@H]5[C@H](O)[C@@H](O)[C@@H](O[C@H]6[C@H](O)[C@@H](O)[C@@H](O[C@H]7[C@H](O)[C@@H](O)[C@@H](O[C@H]8[C@H](O)[C@@H](O)[C@@H](Oc9ccc([N+](=O)[O-])cc9)O[C@@H]8CO)O[C@@H]7CO)O[C@@H]6CO)O[C@@H]5CO)O[C@@H]4CO)O[C@@H]3CO)[C@H](O)[C@@H](O)[C@@H]2O1` (stereo partly drawn) [ethylidene-pNP-G7], the “colorimetric amylase assay, 405 nm” value in data set [1] and in data set [2] was “cleavage of an oligosaccharide substrate mimic (ethylidene-pNP-G7)” throughout. `Nc1ncnc2c1ncn2[C@@H]1O[C@H](COP(=O)(O)OP(=O)(O)NP(=O)(O)O)[C@@H](O)[C@H]1O` [AMP-PNP]: at AcbK [3], the “X-ray crystallography, 2.4 Å” value was “crystal structure of AcbK bound to acarbose and a non-hydrolysable ATP analogue, adenylyl-imidodiphosphate (AMP-PNP)”. Consider `Nc1ncnc2c1ncn2[C@@H]1O[C@H](COP(=O)(O)OP(=O)(O)OP(=O)(O)O)[C@@H](O)[C@H]1O` [ATP], for which, at AcbK [4], the “HPLC-MS of acarbose phosphorylation” value is “we incubated the resulting proteins with ATP and acarbose”.

B1: Mak1 (microbiome-derived acarbose kinase 1) (enzyme)
chain: MTQADVLVVGGVGVDHIVRVKSLPLPVVDSMMVPPIVTVVGHTGNGVALGVHALGRASAMADVIGDDAEGRLIQDAYSAAGIPITFVTHISGTRRSVNLVTEEGQRMSLYDPRHPFEFIPDPSLWREGIERSRHVHVSIMNWARYALRDAVAAGRSTSTDLHDWDGVADYHKDFAYGADYVFVSAAALRDESGVVADVFARGRAQFVVVMAGSEGARVWRRSDELPLRISPISIPGRPVVDSNGAGDSFVAAFLCHYLDHGDIFGAARAGAVGGAWACGTLGTHTSFVDVETLERLLAR
For orientation: stoichiometry N means the number of molecules, sites or subunits per partner or assembly. For the molecule B1, the “stoichiometry N” value in the data set “crystal structure” is 2.

B2: AcbK (acarbose kinase of Actinoplanes sp. SE50/110) (enzyme, UniProt Q8RMD4 1-299, looked up)
chain: MSEHTDVLVLGGAGVDTIAYVPELPLPFQDSYVVAAIEPRAGQTGDNVALGLHTLGLRTMHVDVLGDDPEGDLVRAFHTRHGLPFAALPTAAGTKRAVNLVGPDGRRLSLWDGSREAEEDRYPAALIAAHTAHARHVHVCITPPGQHVFGQLNDLPVTVSTDLHNWDGAYEGFEVYAFNADLVFLSATALTDVAATMRRVIDRGRARLVVATDGAHGGSVLVRGETEVRRYAAVAPEAPVVDSNGAGDAFVSGFLFGHLAGEPLETCLRYGAIAGAYACTIPATRAGAIDRAALLRPAA
Take B2: the “stoichiometry N” value in the data set “crystal structure” came to 2.
